Test results: ChEMBL document CHEMBL1201862, “PubChem BioAssay data set” (2004)
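Values below derive from 48-hour exposures of cells grown in 96-well plates, with endpoints linearly interpolated between the two concentrations bracketing the appropriate inhibition level. GI50: concentration for 50% inhibition of growth.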 Active and inactive are the calls of the source. No stated cut-off is given here; in the data, active = GI50 up to about 1.1 µM and inactive = higher.

Legend:
Assay in all cases: NCI anticancer screen, dose series, 48 h
NCI-H23 = test system: NCI-H23
SN12C = test system: SN12C
HCC 2998 = test system: HCC 2998
UACC-257 = test system: UACC-257
HCT-15 = test system: HCT-15
SF-268 = test system: SF-268
U-251 = test system: U-251
MOLT-4 = test system: MOLT-4
HL-60 = test system: HL-60
KM12 = test system: KM12
OVCAR-8 = test system: OVCAR-8
SNB-19 = test system: SNB-19
CCRF-CEM = test system: CCRF-CEM
SW-620 = test system: SW-620
SF-539 = test system: SF-539
SK-OV-3 = test system: SK-OV-3
EKVX = test system: EKVX
NCI-H460 = test system: NCI-H460
RPMI-8226 = test system: RPMI-8226
NCI-H522 = test system: NCI-H522

## COc1ccc(-c2cc(C(O)C3CCCCN3)c3ccccc3n2)cc1 (centres undefined)
NCI-H23
  GI50: 13.4 µM (inactive)
SN12C
  GI50: 10.6 µM (inactive)
HCC 2998
  GI50: 2.19 µM (inactive)
UACC-257
  GI50: 2.15 µM (inactive)
HCT-15
  GI50: 14.2 µM
SF-268
  GI50: 11.2 µM (inactive)
U-251
  GI50: 3.63 µM (inactive)
MOLT-4
  GI50: 3.59 µM (inactive)
HL-60
  GI50: 11.1 µM (inactive)
KM12
  GI50: 4.14 µM (inactive)
OVCAR-8
  GI50: 13.7 µM (inactive)
SNB-19
  GI50: 13.7 µM (inactive)
CCRF-CEM
  GI50: 2.8 µM (inactive)
SW-620
  GI50: 9.59 µM (inactive)
SF-539
  GI50: 10.1 µM (inactive)
SK-OV-3
  GI50: 14.2 µM (inactive)
EKVX
  GI50: 6.92 µM (inactive)
NCI-H460
  GI50: 3.05 µM (inactive)
RPMI-8226
  GI50: 2.33 µM (inactive)
NCI-H522
  GI50: 7.05 µM (inactive)

## Brc1ccc(C2CC(c3cccc4ccccc34)=Nc3ccccc3S2)cc1 (centres undefined)
NCI-H23
  GI50: 86.5 µM (inactive)
SN12C
  GI50: > 100 µM (inactive)
HCC 2998
  GI50: 30.4 µM (inactive)
UACC-257
  GI50: > 100 µM (inactive)
HCT-15
  GI50: 35.3 µM
SF-268
  GI50: > 100 µM (inactive)
U-251
  GI50: 30.2 µM (inactive)
MOLT-4
  GI50: 23.5 µM (inactive)
HL-60
  GI50: 26.4 µM (inactive)
KM12
  GI50: 70.5 µM (inactive)
OVCAR-8
  GI50: > 100 µM (inactive)
SNB-19
  GI50: > 100 µM (inactive)
CCRF-CEM
  GI50: 29 µM (inactive)
SW-620
  GI50: 16.7 µM (inactive)
SF-539
  GI50: > 100 µM (inactive)
SK-OV-3
  GI50: > 100 µM (inactive)
EKVX
  GI50: 37.1 µM (inactive)
NCI-H460
  GI50: > 100 µM (inactive)
RPMI-8226
  GI50: 10.9 µM (inactive)
NCI-H522
  GI50: 22.5 µM (inactive)

## O=C(Nc1ccc(C2=NCCN2)cc1)c1cncc(C(=O)Nc2ccc(C3=NCCN3)cc2)c1
NCI-H23
  GI50: > 100 µM (inactive)
SN12C
  GI50: > 100 µM (inactive)
HCC 2998
  GI50: > 100 µM (inactive)
UACC-257
  GI50: > 100 µM (inactive)
HCT-15
  GI50: > 100 µM
SF-268
  GI50: > 31.6 µM (inactive)
U-251
  GI50: > 100 µM (inactive)
MOLT-4
  GI50: > 100 µM (inactive)
HL-60
  GI50: > 100 µM (inactive)
KM12
  GI50: > 100 µM (inactive)
OVCAR-8
  GI50: > 100 µM (inactive)
SNB-19
  GI50: > 100 µM (inactive)
CCRF-CEM
  GI50: > 100 µM (inactive)
SW-620
  GI50: > 100 µM (inactive)
SF-539
  GI50: > 100 µM (inactive)
SK-OV-3
  GI50: > 100 µM (inactive)
EKVX
  GI50: > 100 µM (inactive)
NCI-H460
  GI50: > 100 µM (inactive)
RPMI-8226
  GI50: > 100 µM (inactive)
NCI-H522
  GI50: > 100 µM (inactive)

## CCC1CN2CCC1CC2 (centres undefined)
NCI-H23
  GI50: > 100 µM (inactive)
SN12C
  GI50: > 100 µM (inactive)
HCC 2998
  GI50: > 100 µM (inactive)
UACC-257
  GI50: > 91.4 µM (inactive)
HCT-15
  GI50: > 100 µM
SF-268
  GI50: > 100 µM (inactive)
U-251
  GI50: > 100 µM (inactive)
MOLT-4
  GI50: > 100 µM (inactive)
HL-60
  GI50: > 100 µM (inactive)
KM12
  GI50: > 100 µM (inactive)
OVCAR-8
  GI50: > 100 µM (inactive)
SNB-19
  GI50: > 100 µM (inactive)
CCRF-CEM
  GI50: > 100 µM (inactive)
SW-620
  GI50: > 100 µM (inactive)
SF-539
  GI50: > 100 µM (inactive)
SK-OV-3
  GI50: > 100 µM (inactive)
EKVX
  GI50: > 100 µM (inactive)
NCI-H460
  GI50: > 100 µM (inactive)
RPMI-8226
  GI50: > 100 µM (inactive)
NCI-H522
  GI50: > 100 µM (inactive)

## Cn1c2ccccc2c(=O)c2c(O)cc3c(c21)C=CC(C)(C)O3 [NORACRONYCINE]
NCI-H23
  GI50: > 25 µM (inactive)
SN12C
  GI50: > 25 µM (inactive)
HCC 2998
  GI50: > 25 µM (inactive)
UACC-257
  GI50: > 25 µM (inactive)
HCT-15
  GI50: > 25 µM
SF-268
  GI50: > 25 µM (inactive)
U-251
  GI50: > 25 µM (inactive)
MOLT-4
  GI50: 6.28 µM (inactive)
HL-60
  GI50: > 11.1 µM (inactive)
KM12
  GI50: > 25 µM (inactive)
OVCAR-8
  GI50: 2.5 µM (inactive)
SNB-19
  GI50: 9.31 µM (inactive)
CCRF-CEM
  GI50: > 25 µM (inactive)
SW-620
  GI50: 12.2 µM (inactive)
SF-539
  GI50: > 25 µM (inactive)
SK-OV-3
  GI50: > 25 µM (inactive)
EKVX
  GI50: > 21.1 µM (inactive)
NCI-H460
  GI50: > 25 µM (inactive)
RPMI-8226
  GI50: > 25 µM (inactive)
NCI-H522
  GI50: > 25 µM (inactive)

## O=C1C2C(C(=O)N1OS(=O)(=O)c1ccccc1)N(Cc1ccccc1)C(=O)N2Cc1ccccc1 (centres undefined)
NCI-H23
  GI50: > 100 µM (inactive)
SN12C
  GI50: > 100 µM (inactive)
HCC 2998
  GI50: > 100 µM (inactive)
UACC-257
  GI50: > 100 µM (inactive)
HCT-15
  GI50: > 100 µM
SF-268
  GI50: > 100 µM (inactive)
U-251
  GI50: > 100 µM (inactive)
MOLT-4
  GI50: > 100 µM (inactive)
HL-60
  GI50: > 100 µM (inactive)
KM12
  GI50: > 100 µM (inactive)
SNB-19
  GI50: > 100 µM (inactive)
CCRF-CEM
  GI50: > 100 µM (inactive)
SW-620
  GI50: > 100 µM (inactive)
SF-539
  GI50: > 100 µM (inactive)
SK-OV-3
  GI50: > 100 µM (inactive)
EKVX
  GI50: > 100 µM (inactive)
NCI-H460
  GI50: > 100 µM (inactive)
RPMI-8226
  GI50: > 100 µM (inactive)
NCI-H522
  GI50: > 100 µM (inactive)
